Here are results for one compound from patent publication US20240075029A1, “LUMINOL FOR THE PROPHYLAXIS AND THE TREATMENT OF SEQUELAE OF A SARS-COV-2 INFECTION” (METRIOPHARM AG, priority 2020, published 2024).

Like-named read-outs stand apart in the source and are kept apart here.

The test system of one experiment is joint pain. The note with it: human, in vivo.
In experiment [1] the test system is murine peritoneal macrophages. An excerpt: Female C57131/6 mice (6-8 weeks old) were purchased from Envigo (San Petro al Natisone, Udine, Italy) and housed under standard laboratory conditions (specific-pathogen free). Food and water were applied ad libitum. Animal handling and the study protocol were in accordance with international guidelines.
Four days after i.p. injection of 3% thioglycolate medium (w/v in distilled water; St Louis, MO USA), murine peritoneal macrophages (PM) were isolated according to the protocol of Zhang et al. (Curr. Protoc. Immunol. 2008, Chapter 14, Unit 14.1).
Briefly, cells were collected by injecting 10 ml of complete medium (DMEM/F12 Medium containing 10% fetal calf serum) into the peritoneal cavity using a 30 cc syringe attached to a 19-G needle, followed by slowly withdrawing the lavage fluid. Cells were washed twice in PBS (phosphate buffered saline) and counted.
One hour prior to LPS (lipopolysaccharide) stimulation (0.1 μg/ml; Escherichia coli 055:B5, St Louis, MO USA), cells (0.5×10^6 cells/well in 24-well plates with 1 ml total volume of medium) were pre-treated with scalar concentrations of 5-amino-2,3-dihydro-1,4-phthalazinedione sodium salt (ranging from 1 mM to 0.025 mM). Two independent experiments (each using cells pooled from three mice) were performed and secreted cytokine levels were determined 24, 48 and 72 h after LPS stimulation using ELISA technique.

The next experiment concerns SARS-CoV-2. The note with it: Vero B4 cell culture; Schumann et al. (2020); cited from earlier work.
Experiment [2] concerns cigarette smoke-induced 3-nitrotyrosine formation in the lung parenchyma. As to conditions: for 3-nitrotyrosine stained surface area, mean ± SEM: n=5. From the text:
The isolated, ventilated and perfused mouse lung system (ILU) is an established model for studying acute effects of various conditions and drugs on lung parenchyma and vasculature. It is mainly used for examining effects of hypoxia and for evaluating the efficacy of potential drugs on the hypoxic pulmonary vasoreaction (cf. Weissmann et al. (2006) Proc Natl Acad Sci USA 103: 19093-19098).
C57BL/6J mice (n=25, 5 per group; male/female, 3-6 months, 20-30 g; Charles River GmbH, Sulzfeld, Germany) were anesthetized with a ketamine (100 mg/kg body weight) and xylazine (20 mg/kg body weight) intraperitoneal injection (Ceva Tiergesundheit GmbH, Dusseldorf, Germany) containing heparin (50 I.E. heparin/g body weight; Ratiopharm GmbH, Ulm, Germany). […] Lungs were ventilated in an isolated chamber using normoxic gas (21% O2, 5% CO2, 74% N2; 150 breaths per minute at the PEEP (positive end-expiratory pressure) of 3 cm H2O) and perfused with a modified Krebs-Henseleit buffer (120.0 mM NaCl, 4.3 mM KCl, 1.1 mM KH2PO4, 2.4 mM CaCl2, 1.3 mM MgCl2, 13.14 mM glucose, 0.25 mM hydroxyethyl starch 200000/0.5, 25.0 mM NaHCO3 adjusted to a constant pH range of […] L-arginine; Serag-Wissner GmbH & Co. KG, Naila, Germany) at a temperature of 37° C. Lung weight, right and left ventricle pressure, as well as ventilatory pressure were monitored and recorded during the whole experimental procedure. After 5-10 minutes, when the lung was properly flushed and all the parameters were stable, 5-amino-2,3-dihydro-1,4-phthalazinedione sodium salt was applied by adding 150 μl of a stock solution to 15 ml of the circulating perfusion buffer. The substance was applied 10 minutes prior to the first cigarette smoke application. Cigarette smoke was applied via trachea while lung is perfused with the buffer containing 5-amino-2,3-dihydro-1,4-phthalazinedione sodium salt. […] 50 ml of the cigarette smoke were taken via a syringe and applied to the lung via trachea (FIG. 4A) in deep breaths (periodic inflation for 3-4 s) over a period of 5 min. The application was done manually while carefully monitoring the inspiratory pressure to avoid damage of the lung. The cigarette smoke application was repeated three times with a 1 hour break in-between.
Five treatment groups (n=5, respectively) were investigated: • A: room air exposure • B: cigarette smoke+diluent (buffer solution) • C: cigarette smoke+0.5 mM 5-amino-2,3-dihydro-1,4-phthalazinedione sodium salt • D: cigarette smoke+1 mM 5-amino-2,3-dihydro-1,4-phthalazinedione sodium salt • E: cigarette smoke+2 mM 5-amino-2,3-dihydro-1,4-phthalazinedione sodium salt
5-amino-2,3-dihydro-1,4-phthalazinedione sodium salt Form I was dissolved in water for injection (vehicle) at the required concentrations described above. Stock solutions were prepared in water for injection. Further 1:100 dilutions were made with modified Krebs-Henseleit buffer (see above). Stock solutions were stored at −70° C. in appropriate aliquots. The required amount of stock solution was thawed, and the corresponding working solution was prepared for immediate use.
One hour after the third cigarette smoke application lungs were removed from the system and fixed by inflating with formalin solution (via trachea) at the pressure of 12-15 cm H2O for two hours at room temperature. Afterwards the fixed lungs were kept in PBS (phosphate buffer saline, see below) at +4° C. until further dehydration and paraffin embedding. Paraffin blocks were cut 3 μm thick, dried overnight at 37° C. and stained for 3-nitrotyrosine (3-NT).

A further experiment relates to chronic fatigue. As to conditions: human, in vivo.
The next experiment concerns dyspnea. As to conditions: human, in vivo.
The mark [3] stands for this setting: 1 mM, pre-treatment 1 h prior to LPS (0.1 μg/ml), LPS only = 100%, C57 mice PMs.

As for `Nc1cccc2c(=O)[nH][nH]c(=O)c12.[Na]` [5-amino-2,3-dihydro-1,4-phthalazinedione sodium salt], the joint pain entry in the experiment with joint pain is “continuous waning of the joint pain”. In experiment [1] (setting [3]), the “reduction of IL-1-beta level” value was around 50%. The “reduction of IL-6 level” value in experiment [1] (setting [3]) is around 80%. Besides, in experiment [1] (setting [3]), the “reduction of IL-12 level” value is given as around 60%. In experiment [1] (setting [3]), the “reduction of TNF-alpha level” value was “about 40%”. Besides, the “cytokine reduction in PMs of a second mouse strain (Balb/c)” value in experiment [1] (Balb/c PMs, six concentrations ranging from 1 mM to 0.25 mM, data not shown) was “clear dose-dependency”. The “cytokine secretion of unstimulated murine PMs” value in experiment [1] (no LPS stimulation, data not shown) was “did not affect”. In the experiment on SARS-CoV-2, the “replication of SARS-CoV-2” value is on record as “almost completely block”. The “cigarette smoke induced 3-nitrotyrosine formation (immunohistochemistry, in words)” value is “moderate effect” in experiment [2] (0.5 mM in perfusion buffer), “almost completely abolished” in experiment [2] (1 mM in perfusion buffer) and “almost completely abolished” in experiment [2] (2 mM in perfusion buffer). Moreover, the “3-nitrotyrosine stained surface area, mean ± SEM” value was found to be 2.24 ± 0.28 % area in experiment [2] (cigarette smoke + 0.5 mM in perfusion buffer), 0.72 ± 0.26 % area in experiment [2] (cigarette smoke + 1 mM in perfusion buffer) and 0.37 ± 0.13 % area in experiment [2] (cigarette smoke + 2 mM in perfusion buffer). Also, the “symptoms of chronic fatigue” value with chronic fatigue was “continuous waning of the symptoms”. Also, in the experiment on dyspnea, the “physical performance (dyspnea)” value was “continuous improvement of the physical performance”.
